Test results published in patent US8399502B2, “Analogs of indole-3-carbinol and their use as agents against infection” (priority 2008, dated 2013).
Values after ≈ are worked out from the molar mass of the structure shown.

Tested on: Francisella tularensis (FT; Gram-negative)
Experiment: microbe, parasite or virus in culture
Format: cell-based
Settings: read-out: MIC FT

| SMILES | MIC [mg/L] |
| --- | --- |
| C=C(c1c[nH]c2ccccc12)c1c[nH]c2ccccc12 | 16 (≈ 61.9 µM) |
| c1ccc2[nH]c(Cc3cc4ccccc4[nH]3)cc2c1 | 4 (≈ 16.2 µM) |
| c1ccc2[nH]c(Cc3c[nH]c4ccccc34)cc2c1 | 4 (≈ 16.2 µM) |
| c1ccc2c(Cc3c[nH]c4ccccc34)c[nH]c2c1 | 8 (≈ 32.5 µM) |
| Cc1onc(-c2ccccc2)c1C(=O)N[C@@H]1C(=O)N2[C@@H]1SC(C)(C)[C@@H]2C(=O)O [Oxacillin, oxacillin, reference compound] | > 64 |
| Cc1c2[nH]c3ccccc3c2cc2c1[nH]c1ccccc12 [drawing 263] | ≤ 0.5 |
| c1ccc2c(Cc3[nH]c4ccccc4c3Cc3c[nH]c4ccccc34)c[nH]c2c1 | 2 (≈ 5.33 µM) |
| CCOC(=O)c1ccc2[nH]cc(Cc3c(C)[nH]c4ccccc34)c2c1 | 4 (≈ 12 µM) |
| CCOC(=O)Oc1c2[nH]c3ccccc3c2cc2c1[nH]c1ccccc12 | ≤ 0.5 |

Tested on: Bacillus anthracis (BA; Gram-positive)
Experiment: microbe, parasite or virus in culture
Format: cell-based
Settings: read-out: MIC BA

| SMILES | MIC [mg/L] |
| --- | --- |
| C=C(c1c[nH]c2ccccc12)c1c[nH]c2ccccc12 | 8 (≈ 31 µM) |
| c1ccc2[nH]c(Cc3cc4ccccc4[nH]3)cc2c1 | 16 (≈ 65 µM) |
| c1ccc2[nH]c(Cc3c[nH]c4ccccc34)cc2c1 | 16 (≈ 65 µM) |
| c1ccc2c(Cc3c[nH]c4ccccc34)c[nH]c2c1 | > 64 |
| Cc1onc(-c2ccccc2)c1C(=O)N[C@@H]1C(=O)N2[C@@H]1SC(C)(C)[C@@H]2C(=O)O [Oxacillin, oxacillin, reference compound] | 0.8 (≈ 1.99 µM) |
| Cc1c2[nH]c3ccccc3c2cc2c1[nH]c1ccccc12 [drawing 263] | 1 (≈ 3.7 µM) |
| c1ccc2c(Cc3[nH]c4ccccc4c3Cc3c[nH]c4ccccc34)c[nH]c2c1 | 4 (≈ 10.7 µM) |
| CCOC(=O)c1ccc2[nH]cc(Cc3c(C)[nH]c4ccccc34)c2c1 | 8 (≈ 24.1 µM) |
| CCOC(=O)Oc1c2[nH]c3ccccc3c2cc2c1[nH]c1ccccc12 | 4 (≈ 11.6 µM) |

Tested on: methicillin-susceptible Staphylococcus aureus (MSSA)
Experiment: microbe, parasite or virus in culture
Format: cell-based
Settings: read-out: MIC MSSA

| SMILES | MIC [mg/L] |
| --- | --- |
| C=C(c1c[nH]c2ccccc12)c1c[nH]c2ccccc12 | 8 (≈ 31 µM) |
| c1ccc2[nH]c(Cc3cc4ccccc4[nH]3)cc2c1 | 16 (≈ 65 µM) |
| c1ccc2[nH]c(Cc3c[nH]c4ccccc34)cc2c1 | 32 (≈ 130 µM) |
| c1ccc2c(Cc3c[nH]c4ccccc34)c[nH]c2c1 | > 64 |
| Cc1c2[nH]c3ccccc3c2cc2c1[nH]c1ccccc12 [drawing 263] | 2 (≈ 7.4 µM) |
| c1ccc2c(Cc3[nH]c4ccccc4c3Cc3c[nH]c4ccccc34)c[nH]c2c1 | 8 (≈ 21.3 µM) |
| CCOC(=O)c1ccc2[nH]cc(Cc3c(C)[nH]c4ccccc34)c2c1 | > 64 |
| CCOC(=O)Oc1c2[nH]c3ccccc3c2cc2c1[nH]c1ccccc12 | 4 (≈ 11.6 µM) |

Tested on: methicillin-resistant Staphylococcus aureus (MRSA)
Experiment: microbe, parasite or virus in culture
Format: cell-based
Settings: read-out: MIC MRSA

| SMILES | MIC [mg/L] |
| --- | --- |
| C=C(c1c[nH]c2ccccc12)c1c[nH]c2ccccc12 | 8 (≈ 31 µM) |
| c1ccc2[nH]c(Cc3cc4ccccc4[nH]3)cc2c1 | 32 (≈ 130 µM) |
| c1ccc2[nH]c(Cc3c[nH]c4ccccc34)cc2c1 | 32 (≈ 130 µM) |
| c1ccc2c(Cc3c[nH]c4ccccc34)c[nH]c2c1 | > 64 |
| Cc1onc(-c2ccccc2)c1C(=O)N[C@@H]1C(=O)N2[C@@H]1SC(C)(C)[C@@H]2C(=O)O [Oxacillin, oxacillin, reference compound] | > 64 |
| Cc1c2[nH]c3ccccc3c2cc2c1[nH]c1ccccc12 [drawing 263] | 4 (≈ 14.8 µM) |
| c1ccc2c(Cc3[nH]c4ccccc4c3Cc3c[nH]c4ccccc34)c[nH]c2c1 | 8 (≈ 21.3 µM) |
| CCOC(=O)c1ccc2[nH]cc(Cc3c(C)[nH]c4ccccc34)c2c1 | > 64 |
| CCOC(=O)Oc1c2[nH]c3ccccc3c2cc2c1[nH]c1ccccc12 | 4 (≈ 11.6 µM) |

Tested on: penicillin-susceptible S. pneumoniae (PSSP)
Experiment: microbe, parasite or virus in culture
Format: cell-based
Settings: Streptococcus pneumoniae, read-out: MIC PSSP

| SMILES | MIC [mg/L] |
| --- | --- |
| C=C(c1c[nH]c2ccccc12)c1c[nH]c2ccccc12 | 4 (≈ 15.5 µM) |
| c1ccc2[nH]c(Cc3cc4ccccc4[nH]3)cc2c1 | 1 (≈ 4.06 µM) |
| c1ccc2[nH]c(Cc3c[nH]c4ccccc34)cc2c1 | 8 (≈ 32.5 µM) |
| c1ccc2c(Cc3c[nH]c4ccccc34)c[nH]c2c1 | > 64 |
| Cc1onc(-c2ccccc2)c1C(=O)N[C@@H]1C(=O)N2[C@@H]1SC(C)(C)[C@@H]2C(=O)O [Oxacillin, oxacillin, reference compound] | 0.1 (≈ 0.249 µM) |
| Cc1c2[nH]c3ccccc3c2cc2c1[nH]c1ccccc12 [drawing 263] | 1 (≈ 3.7 µM) |
| c1ccc2c(Cc3[nH]c4ccccc4c3Cc3c[nH]c4ccccc34)c[nH]c2c1 | 4 (≈ 10.7 µM) |
| CCOC(=O)c1ccc2[nH]cc(Cc3c(C)[nH]c4ccccc34)c2c1 | 2 (≈ 6.02 µM) |
| CCOC(=O)Oc1c2[nH]c3ccccc3c2cc2c1[nH]c1ccccc12 | 4 (≈ 11.6 µM) |

Tested on: penicillin-resistant S. pneumoniae (PRSP)
Experiment: microbe, parasite or virus in culture
Format: cell-based
Settings: Streptococcus pneumoniae, read-out: MIC PRSP

| SMILES | MIC [mg/L] |
| --- | --- |
| C=C(c1c[nH]c2ccccc12)c1c[nH]c2ccccc12 | 2 (≈ 7.74 µM) |
| c1ccc2[nH]c(Cc3cc4ccccc4[nH]3)cc2c1 | 2 (≈ 8.12 µM) |
| c1ccc2[nH]c(Cc3c[nH]c4ccccc34)cc2c1 | 1 (≈ 4.06 µM) |
| c1ccc2c(Cc3c[nH]c4ccccc34)c[nH]c2c1 | 8 (≈ 32.5 µM) |
| Cc1c2[nH]c3ccccc3c2cc2c1[nH]c1ccccc12 [drawing 263] | 1 (≈ 3.7 µM) |
| c1ccc2c(Cc3[nH]c4ccccc4c3Cc3c[nH]c4ccccc34)c[nH]c2c1 | 2 (≈ 5.33 µM) |
| CCOC(=O)c1ccc2[nH]cc(Cc3c(C)[nH]c4ccccc34)c2c1 | 8 (≈ 24.1 µM) |
| CCOC(=O)Oc1c2[nH]c3ccccc3c2cc2c1[nH]c1ccccc12 | 2 (≈ 5.81 µM) |

Tested on: Acinetobacter baumannii (AB)
Experiment: MIC determination
Format: cell-based
Settings: Table 3

| SMILES | MIC [mg/L] |
| --- | --- |
| N=C(N)NCCCOc1c2[nH]c3ccc(F)cc3c2cc2c1[nH]c1ccc(F)cc12 [drawing 268] | 8 (≈ 19.6 µM) |
| N=C(N)NCCCOc1c2[nH]c3ccc(Cl)cc3c2cc2c1[nH]c1ccc(Cl)cc12 [drawing 266] | 4 (≈ 9.08 µM) |
| CN(C)CCOc1c2[nH]c3ccc(F)cc3c2cc2c1[nH]c1ccc(F)cc12 [drawing 265] | 4 (≈ 10.5 µM) |
| Fc1ccc2[nH]c3c(OCCCNC4=NCCN4)c4[nH]c5ccc(F)cc5c4cc3c2c1 [drawing 270] | 4 (≈ 9.23 µM) |
| OC1CCN(CCCOc2c3[nH]c4ccc(Cl)cc4c3cc3c2[nH]c2ccc(Cl)cc23)CC1 [drawing 267] | 4 (≈ 8.29 µM) |
| Fc1ccc2[nH]c3c(O[C@@H]4CCNC4)c4[nH]c5ccc(F)cc5c4cc3c2c1 [drawing 269] | 4 (≈ 10.6 µM) |

Tested on: Listeria monocytogenes (LM)
Experiment: MIC determination
Format: cell-based
Settings: Table 3

| SMILES | MIC [mg/L] |
| --- | --- |
| N=C(N)NCCCOc1c2[nH]c3ccc(F)cc3c2cc2c1[nH]c1ccc(F)cc12 [drawing 268] | 4 (≈ 9.82 µM) |
| N=C(N)NCCCOc1c2[nH]c3ccc(Cl)cc3c2cc2c1[nH]c1ccc(Cl)cc12 [drawing 266] | 1 (≈ 2.27 µM) |
| CN(C)CCOc1c2[nH]c3ccc(F)cc3c2cc2c1[nH]c1ccc(F)cc12 [drawing 265] | 2 (≈ 5.27 µM) |
| Fc1ccc2[nH]c3c(OCCCNC4=NCCN4)c4[nH]c5ccc(F)cc5c4cc3c2c1 [drawing 270] | 2 (≈ 4.61 µM) |
| OC1CCN(CCCOc2c3[nH]c4ccc(Cl)cc4c3cc3c2[nH]c2ccc(Cl)cc23)CC1 [drawing 267] | 1 (≈ 2.07 µM) |
| Fc1ccc2[nH]c3c(O[C@@H]4CCNC4)c4[nH]c5ccc(F)cc5c4cc3c2c1 [drawing 269] | 2 (≈ 5.3 µM) |

Tested on: Shigella dysenteriae (SD)
Experiment: MIC determination
Format: cell-based
Settings: Table 3

| SMILES | MIC [mg/L] |
| --- | --- |
| N=C(N)NCCCOc1c2[nH]c3ccc(F)cc3c2cc2c1[nH]c1ccc(F)cc12 [drawing 268] | 8 (≈ 19.6 µM) |
| N=C(N)NCCCOc1c2[nH]c3ccc(Cl)cc3c2cc2c1[nH]c1ccc(Cl)cc12 [drawing 266] | 4 (≈ 9.08 µM) |
| CN(C)CCOc1c2[nH]c3ccc(F)cc3c2cc2c1[nH]c1ccc(F)cc12 [drawing 265] | 8 (≈ 21.1 µM) |
| Fc1ccc2[nH]c3c(OCCCNC4=NCCN4)c4[nH]c5ccc(F)cc5c4cc3c2c1 [drawing 270] | 8 (≈ 18.5 µM) |
| OC1CCN(CCCOc2c3[nH]c4ccc(Cl)cc4c3cc3c2[nH]c2ccc(Cl)cc23)CC1 [drawing 267] | 8 (≈ 16.6 µM) |
| Fc1ccc2[nH]c3c(O[C@@H]4CCNC4)c4[nH]c5ccc(F)cc5c4cc3c2c1 [drawing 269] | 4 (≈ 10.6 µM) |

Tested on: Vancomycin-resistant Enterococcus faecalis (VRE)
Experiment: MIC determination
Format: cell-based
Settings: Table 3

| SMILES | MIC [mg/L] |
| --- | --- |
| N=C(N)NCCCOc1c2[nH]c3ccc(F)cc3c2cc2c1[nH]c1ccc(F)cc12 [drawing 268] | 2 (≈ 4.91 µM) |
| N=C(N)NCCCOc1c2[nH]c3ccc(Cl)cc3c2cc2c1[nH]c1ccc(Cl)cc12 [drawing 266] | 2 (≈ 4.54 µM) |
| CN(C)CCOc1c2[nH]c3ccc(F)cc3c2cc2c1[nH]c1ccc(F)cc12 [drawing 265] | 2 (≈ 5.27 µM) |
| Fc1ccc2[nH]c3c(OCCCNC4=NCCN4)c4[nH]c5ccc(F)cc5c4cc3c2c1 [drawing 270] | 1 (≈ 2.31 µM) |
| OC1CCN(CCCOc2c3[nH]c4ccc(Cl)cc4c3cc3c2[nH]c2ccc(Cl)cc23)CC1 [drawing 267] | 2 (≈ 4.15 µM) |
| Fc1ccc2[nH]c3c(O[C@@H]4CCNC4)c4[nH]c5ccc(F)cc5c4cc3c2c1 [drawing 269] | 1 (≈ 2.65 µM) |

Tested on: Vancomycin-Sensitive Enterococcus faecalis (VSE)
Experiment: MIC determination
Format: cell-based
Settings: Table 3

| SMILES | MIC [mg/L] |
| --- | --- |
| N=C(N)NCCCOc1c2[nH]c3ccc(F)cc3c2cc2c1[nH]c1ccc(F)cc12 [drawing 268] | 8 (≈ 19.6 µM) |
| N=C(N)NCCCOc1c2[nH]c3ccc(Cl)cc3c2cc2c1[nH]c1ccc(Cl)cc12 [drawing 266] | 4 (≈ 9.08 µM) |
| CN(C)CCOc1c2[nH]c3ccc(F)cc3c2cc2c1[nH]c1ccc(F)cc12 [drawing 265] | 1 (≈ 2.64 µM) |
| Fc1ccc2[nH]c3c(OCCCNC4=NCCN4)c4[nH]c5ccc(F)cc5c4cc3c2c1 [drawing 270] | 4 (≈ 9.23 µM) |
| OC1CCN(CCCOc2c3[nH]c4ccc(Cl)cc4c3cc3c2[nH]c2ccc(Cl)cc23)CC1 [drawing 267] | 4 (≈ 8.29 µM) |
| Fc1ccc2[nH]c3c(O[C@@H]4CCNC4)c4[nH]c5ccc(F)cc5c4cc3c2c1 [drawing 269] | 2 (≈ 5.3 µM) |

Tested on: Mycobacteruim tuberculosis H37Rv (H37Rv)
Experiment: microbe, parasite or virus in culture
Format: cell-based
Settings: Mycobacterium tuberculosis, read-out: MIC against Tubercle bacillus

| SMILES | MIC [mg/L] |
| --- | --- |
| Fc1ccc2[nH]c3c(O[C@H]4CCNC4)c4[nH]c5ccc(F)cc5c4cc3c2c1 [drawing 280] | 5 (≈ 13.2 µM) |
| Fc1ccc2[nH]c3c(OCCCn4cncn4)c4[nH]c5ccc(F)cc5c4cc3c2c1 [drawing 276] | > 10 |
| Fc1ccc2[nH]c3c(O[C@@H]4CCNC4)c4[nH]c5ccc(F)cc5c4cc3c2c1 [drawing 279] | 10 (≈ 26.5 µM) |
| CN(C)CC#Cc1c2[nH]c3ccc(F)cc3c2cc2c1[nH]c1ccc(F)cc12 [drawing 273] | 10 (≈ 26.8 µM) |
